Legend:
[1] = LAL pyrogen test (Charles River Labs Endosafe); settings: final purified solutions in physiologic saline
[2] = FDA approved pre-clinical IND safety trial in humans; type: in vivo; settings: after about fifty trials
[3] = Culture of final purified solutions for microorganism growth (sterility); settings: 1 mL of final purified solution in physiologic saline; enriched thioglycollate at 37° C. and trypticase soy broth at 23° C.; 2 weeks
Description: The final purified solutions in physiologic saline [^18F]FCH and [^18F]FECh were cultured (1 mL) for microorganisms for growth in enriched thioglycollate at 37° C. and trypticase soy broth media at 23° C. […] A positive control standard is always included in the assay. [^18F]FCH is currently in an FDA approved pre-clinical IND safety trial in humans.

SMILES | pyrogens (LAL) [1] | adverse effects [2] | growth of microorganisms in culture [3]
C[N+](C)(C[18F])CCO [[^18F]FCH, [^18F]N,N-Dimethyl-N-fluoromethylethanolamine] | pyrogen free | no adverse effects | No growth
C[N+](C)(CCO)CC[18F] [[^18F]FECh, [^18F]N,N-Dimethyl-N-fluoroethylethanolamine] | pyrogen free |  | No growth
